Results on 28 molecules are retold here after patent US12590083B2, “Inhibitors of spinster homolog 2 (SPNS2) for use in therapy” (University of Virginia Patent Foundation, priority 2019, dated 2026).

This experiment has as its target T1, human SPNS2 (Homo sapiens, UniProt Q8IVW8).
T1 construct: expressed in transfected cells; host or cells: Saccharomyces cerevisiae strain with forced expression of a mammalian SphK and human SPNS2
T1 sequence (Q8IVW8 1-549): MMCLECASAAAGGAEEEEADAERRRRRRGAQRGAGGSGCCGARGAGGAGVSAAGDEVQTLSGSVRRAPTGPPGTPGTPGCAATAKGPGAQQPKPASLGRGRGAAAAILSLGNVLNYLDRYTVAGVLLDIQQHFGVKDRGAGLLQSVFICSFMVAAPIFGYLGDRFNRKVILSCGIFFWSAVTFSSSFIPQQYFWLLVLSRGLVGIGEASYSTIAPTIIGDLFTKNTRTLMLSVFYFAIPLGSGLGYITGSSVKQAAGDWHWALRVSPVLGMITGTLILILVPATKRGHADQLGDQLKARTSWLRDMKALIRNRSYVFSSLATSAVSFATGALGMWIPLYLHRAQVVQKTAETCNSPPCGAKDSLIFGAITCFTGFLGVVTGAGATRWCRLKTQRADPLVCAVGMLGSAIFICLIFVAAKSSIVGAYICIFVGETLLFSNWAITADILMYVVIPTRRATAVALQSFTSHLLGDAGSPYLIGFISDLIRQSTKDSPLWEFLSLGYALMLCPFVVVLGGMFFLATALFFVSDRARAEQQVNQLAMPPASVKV
The experiment can be described thus: S1P transporter assay: growth of S. cerevisiae strain with forced expression of a mammalian SphK and human SPNS2. As to conditions: in vitro inhibition of SPNS2; growth of S. cerevisiae strain expressing mammalian SphK and human SPNS2; compounds as their pharmaceutical salts. It is filed as cell-based. An excerpt:
Transporter assays are vectorial and, therefore, require measurement of the transported analyte in different compartments. The assay of S1P transporters is problematic because S1P is exported, but not imported, by SPNS2, which obviates measuring uptake of mass- or radio-labeled S1P into transporter-expressing cells.
To assay for SPNS2 inhibitor hits, we took advantage of the growth inhibitory effects of excessive levels of phosphorylated Long Chain Base (phospho-LCB) levels on the budding yeast, S. cerevisiae (Kharel Y, et al. Saccharomyces cerevisiae as a platform for assessing sphingolipid lipid kinase inhibitors. PLoS One 13, e0192179 (2018) PMC5908134). Yeast lack the desaturase that converts dihydroceramide to ceramide and, therefore, have neither sphingosine nor S1P. Rather, yeast have the reduced form, dihydrosphingosine, and the 4-hydroxyl analog, phytosphingosine and their respective phosphates. Like all eukaryotes, the yeast synthesizes (via LCB kinases (SphKs)) and degrades (via phospho-LCB lyase and phosphatase) phospho-LCBs, (dhS1P, phytoS1P). Yeast lack phospho-LCB transporters such as SPNS2, which are found only in vertebrates. To assess inhibition of SPNS2 in vitro, we used a strain of S. cerevisiae wherein expression of a mammalian SphK and human SPNS2 were forced. SPNS2 inhibitors decrease the growth of this strain. Table 2 below presents in vitro inhibition data against SPNS2 for exemplary compounds, presented here as their pharmaceutical salts, of the disclosure (A≤2 μM, B>2 μM).

The structures appear in SMILES notation. Structures can show the parent of a compound that is named as a salt.

Broadly, the IC50 is the concentration that inhibits the measured activity by half.

As for `CCCCCCCO/N=C(\C)c1ccc(-c2noc([C@@H]3CCNC3)n2)cc1` [Compound 38i, hydrochloride], the IC50 was greater than 2000 nM.

In the case of `CCCCCCCCOc1ccc(-c2noc([C@@H]3CCCNC3)n2)cc1C(F)(F)F` [Compound 21d, (R)-3-(4-(octyloxy)-3-(trifluoromethyl)phenyl)-5-(piperidin-3-yl)-1,2,4-oxadiazole hydrochloride], the half-maximal inhibitory concentration (IC50) was greater than 2000 nM.

As for `CCCCCCCCCCc1ccc(-c2noc([C@H]3CCCNC3)n2)cc1` [Compound 5f, (S)-3-(3-(4-decylphenyl)-1,2,4-oxadiazol-5-yl)piperidin-1-ium 2,2,2-trifluoroacetate], the IC50 is greater than 2000 nM.

For the molecule `N=C(N)N1CCC[C@@H](c2nc(-c3ccc(Nc4ccc(OC(F)(F)F)c(F)c4)nc3)no2)C1` [Compound 15c, (R)-3-(3-(6-((3-fluoro-4-(trifluoromethoxy)phenyl)amino)pyridin-3-yl)-1,2,4-oxadiazol-5-yl)piperidine-1-carboximidamide hydrochloride], the IC50 is greater than 2000 nM.

With `CCCCCCCCCOc1ccc(-c2noc([C@@H]3CCCN(C(=N)N)C3)n2)cc1C(F)(F)F` [Compound 23e, (R)-3-(3-(4-(nonyloxy)-3-(trifluoromethyl)phenyl)-1,2,4-oxadiazol-5-yl)piperidine-1-carboximidamide hydrochloride], the IC50 was no more than 2000 nM.

Regarding `C/C(=N\OCc1ccc(C(F)(F)F)cc1)c1ccc(-c2noc([C@@H]3CCNC3)n2)cc1` [Compound 38c, (R)-1-(4-(5-(pyrrolidin-3-yl)-1,2,4-oxadiazol-3-yl)phenyl)ethan-1-one O-(4-(trifluoromethyl)benzyl) oxime hydrochloride], the half-maximal inhibitory concentration (IC50) is greater than 2000 nM.

In the case of `CCCCCCCCCCCc1ccc(-c2noc(C3CN(C(=N)N)C3)n2)cc1C(F)(F)F` [Compound 30c, 3-(3-(3-(trifluoromethyl)-4-undecylphenyl)-1,2,4-oxadiazol-5-yl)azetidine-1-carboximidamide hydrochloride], the IC50 is greater than 2000 nM.

For the molecule `Brc1ccc(Br)c(Nc2ccc(-c3noc([C@@H]4CCNC4)n3)cn2)c1` [Compound 13f, (R)—N-(2,5-dibromophenyl)-5-(5-(pyrrolidin-3-yl)-1,2,4-oxadiazol-3-yl)pyridin-2-amine hydrochloride], the IC50 was greater than 2000 nM.

For `CCCCCCCCCCc1ccc(-c2noc(C[C@@H]3CCNC3)n2)cc1` [Compound 5p, (S)-3-(4-decylphenyl)-5-(pyrrolidin-3-ylmethyl)-1,2,4-oxadiazole 2,2,2-trifluoroacetate], the IC50 was no more than 2000 nM.

With `CCCCCCCCCCc1ccc(Nc2ccc(-c3noc([C@@H]4CCN(C(=N)N)C4)n3)cn2)cc1` [Compound 15h, (R)-3-(3-(6-((4-decylphenyl)amino)pyridin-3-yl)-1,2,4-oxadiazol-5-yl)pyrrolidine-1-carboximidamide hydrochloride], the IC50 is no more than 2000 nM.

As to `CCCCCCCCCCCc1ccc(-c2noc([C@@H]3CCCN(C(=N)N)C3)n2)cc1` [Compound 7ya, (R)-3-(3-(4-undecylphenyl)-1,2,4-oxadiazol-5-yl)piperidine-1-carboximidamide hydrochloride], the IC50 is no more than 2000 nM.

Turning to `CC(C)(C)c1cccc(Nc2ccc(-c3noc([C@@H]4CCN(C(=N)N)C4)n3)cn2)c1` [Compound 15g, (R)-3-(3-(6-((3-(tert-butyl)phenyl)amino)pyridin-3-yl)-1,2,4-oxadiazol-5-yl)pyrrolidine-1-carboximidamide hydrochloride], the IC50 is greater than 2000 nM.

Take `CCCCCCCCCCc1ccc(-c2noc(C[C@@H]3CCCNC3)n2)cc1` [Compound 5q, (S)-3-(4-decylphenyl)-5-(piperidin-3-ylmethyl)-1,2,4-oxadiazole 2,2,2-trifluoroacetate]: the IC50 is no more than 2000 nM.

Regarding `CCCCCCCOc1ccc(-c2noc([C@@H]3CCCNC3)n2)cc1C(F)(F)F` [Compound 21c, (R)-3-(4-(heptyloxy)-3-(trifluoromethyl)phenyl)-5-(piperidin-3-yl)-1,2,4-oxadiazole hydrochloride], the IC50 was greater than 2000 nM.

`CCCCCCCCCc1ccc(-c2noc(C3CN(C(=N)N)C3)n2)cc1C(F)(F)F` [Compound 30a, 3-(3-(4-nonyl-3-(trifluoromethyl)phenyl)-1,2,4-oxadiazol-5-yl)azetidine-1-carboximidamide hydrochloride]: the IC50 is no more than 2000 nM.

Turning to `CCCCCCCCCCc1ccc(-c2noc([C@@H]3CCCNC3)n2)cc1` [Compound 5h, (R)-3-(3-(4-decylphenyl)-1,2,4-oxadiazol-5-yl)piperidin-1-ium 2,2,2-trifluoroacetate], the IC50 is greater than 2000 nM.

For `CCCCCCCCCCCc1ccc(-c2noc([C@@H]3CCN(C(=N)N)C3)n2)cc1` [Compound 7xa, (R)-3-(3-(4-undecylphenyl)-1,2,4-oxadiazol-5-yl)pyrrolidine-1-carboximidamide hydrochloride], the IC50 is no more than 2000 nM.

Regarding `C/C(=N\OCc1cc(C(F)(F)F)cc(C(F)(F)F)c1)c1ccc(-c2noc([C@@H]3CCN(C(=N)N)C3)n2)cc1` [Compound 40b, (R)-3-(3-(4-(1-(((3,5-bis(trifluoromethyl)benzyl)oxy)imino)ethyl)phenyl)-1,2,4-oxadiazol-5-yl)pyrrolidine-1-carboximidamide hydrochloride], the IC50 is no more than 2000 nM.

In the case of `CCCCCCCCc1ccc(-c2noc(C3CN(C(=N)N)C3)n2)cc1` [Compound 7d, 3-(3-(4-octylphenyl)-1,2,4-oxadiazol-5-yl)azetidine-1-carboximidamide hydrochloride], the IC50 is greater than 2000 nM.

Consider `Fc1cc(Nc2ccc(-c3noc([C@@H]4CCCNC4)n3)cn2)ccc1OC(F)(F)F` [Compound 13c, (R)—N-(3-fluoro-4-(trifluoromethoxy)phenyl)-5-(5-(piperidin-3-yl)-1,2,4-oxadiazol-3-yl)pyridin-2-amine hydrochloride], for which the IC50 was greater than 2000 nM.

Consider `CCCCCCCCCCc1ccc(-c2noc(C[C@@H]3CCCN(C(=N)N)C3)n2)cc1` [Compound 7q, (S)-3-((3-(4-decylphenyl)-1,2,4-oxadiazol-5-yl)methyl)piperidine-1-carboximidamide 2,2,2-trifluoroacetate], for which the IC50 is no more than 2000 nM.

Consider `CCCCCCCCCCc1ccc(-c2noc(CC3CN(C(=N)N)C3)n2)cc1` [Compound 7i], for which the IC50 is no more than 2000 nM.

Consider `C/C(=N\OCc1ccc(C(F)(F)F)cc1)c1ccc(-c2noc([C@@H]3CCN(C(=N)N)C3)n2)cc1` [Compound 40c, (R)-3-(3-(4-(1-(((4-(trifluoromethyl)benzyl)oxy)imino)ethyl)phenyl)-1,2,4-oxadiazol-5-yl)pyrrolidine-1-carboximidamide hydrochloride], for which the IC50 was greater than 2000 nM.

As to `N=C(N)N1CC[C@@H](c2nc(-c3ccc(Nc4cc(Br)ccc4Br)nc3)no2)C1` [Compound 15f, (R)-3-(3-(6-((2,5-dibromophenyl)amino)pyridin-3-yl)-1,2,4-oxadiazol-5-yl)pyrrolidine-1-carboximidamide hydrochloride], the IC50 is greater than 2000 nM.

With `N=C(N)N1CC[C@@H](c2nc(-c3ccc(Nc4ccccc4Cl)nc3)no2)C1` [Compound 15e, (R)-3-(3-(6-((2-chlorophenyl)amino)pyridin-3-yl)-1,2,4-oxadiazol-5-yl)pyrrolidine-1-carboximidamide hydrochloride], the IC50 was greater than 2000 nM.

Regarding `C/C(=N\OCCCCc1ccccc1)c1ccc(-c2noc([C@@H]3CCN(C(=N)N)C3)n2)cc1` [Compound 40a, (R)-3-(3-(4-(1-((4-phenylbutoxy)imino)ethyl)phenyl)-1,2,4-oxadiazol-5-yl)pyrrolidine-1-carboximidamide hydrochloride], the half-inhibitory concentration (IC50) is no more than 2000 nM.

Take `N=C(N)N1CCC[C@@H](c2nc(-c3ccc(OCCCc4ccccc4)c(C(F)(F)F)c3)no2)C1` [Compound 23j, (R)-3-(3-(4-(3-phenylpropoxy)-3-(trifluoromethyl)phenyl)-1,2,4-oxadiazol-5-yl)piperidine-1-carboximidamide hydrochloride]: the IC50 was greater than 2000 nM.

As to `CCCCCCCCCCc1cccc(-c2noc([C@@H]3CCN(C(=N)N)C3)n2)c1` [Compound 7t, (R)-3-(3-(3-decylphenyl)-1,2,4-oxadiazol-5-yl)pyrrolidine-1-carboximidamide hydrochloride], the IC50 is greater than 2000 nM.
